Reference: ChEMBL document CHEMBL5385856, “Novel 1,4,5,6-tetrahydrocyclopenta[d]imidazole-5-carboxamide-based JNK3 inhibitors: Design, synthesis, molecular docking, and therapeutic potential in neurodegenerative diseases” (Eur J Med Chem, 2023)
The source made the active and inactive calls. The rule behind the calls is not given here.

Key:
[1] = target: T1, Mitogen-activated protein kinase 10 (Homo sapiens, UniProt P53779); test: Inhibition of JNK3 (unknown origin) using ATF2 as substrate incubated for 40 mins in presence of [gamma33P]ATP by scintillation counting analysis
T1 sequence (P53779 whole entry): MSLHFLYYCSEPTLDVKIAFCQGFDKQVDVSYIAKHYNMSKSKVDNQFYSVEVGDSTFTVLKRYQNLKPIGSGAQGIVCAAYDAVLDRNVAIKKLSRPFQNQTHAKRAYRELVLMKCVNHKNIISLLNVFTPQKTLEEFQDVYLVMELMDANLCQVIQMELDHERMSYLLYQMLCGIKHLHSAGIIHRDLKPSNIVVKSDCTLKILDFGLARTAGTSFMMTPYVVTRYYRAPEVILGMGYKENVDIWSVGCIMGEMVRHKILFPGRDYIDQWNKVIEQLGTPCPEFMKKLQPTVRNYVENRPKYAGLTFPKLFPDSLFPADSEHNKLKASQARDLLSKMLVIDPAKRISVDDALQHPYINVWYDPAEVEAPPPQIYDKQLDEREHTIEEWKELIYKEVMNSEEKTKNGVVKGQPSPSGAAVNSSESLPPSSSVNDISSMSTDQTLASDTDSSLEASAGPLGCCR

[2] = target: T2, Mitogen-activated protein kinase 9 (Homo sapiens, UniProt P45984); test: Inhibition of JNK2 (unknown origin) incubated for 20 mins in presence of 33P-ATP
Target sequence in this assay (P45984 whole entry): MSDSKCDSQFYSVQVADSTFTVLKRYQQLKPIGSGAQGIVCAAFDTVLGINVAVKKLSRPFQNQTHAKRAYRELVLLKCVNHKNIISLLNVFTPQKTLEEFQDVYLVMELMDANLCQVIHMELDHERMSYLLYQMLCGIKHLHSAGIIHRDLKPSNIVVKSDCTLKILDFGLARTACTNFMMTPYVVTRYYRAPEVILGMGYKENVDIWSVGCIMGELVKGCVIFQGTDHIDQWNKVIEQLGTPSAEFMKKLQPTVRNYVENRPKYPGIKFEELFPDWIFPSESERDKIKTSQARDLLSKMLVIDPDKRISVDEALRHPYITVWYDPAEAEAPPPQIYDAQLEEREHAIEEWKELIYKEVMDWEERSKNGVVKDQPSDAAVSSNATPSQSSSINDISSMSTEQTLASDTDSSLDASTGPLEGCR

[3] = target: T3, Mitogen-activated protein kinase 8 (Homo sapiens, UniProt P45983); test: Inhibition of JNK1 (unknown origin) incubated for 20 mins in presence of 33P-ATP
T3 sequence (P45983 whole entry): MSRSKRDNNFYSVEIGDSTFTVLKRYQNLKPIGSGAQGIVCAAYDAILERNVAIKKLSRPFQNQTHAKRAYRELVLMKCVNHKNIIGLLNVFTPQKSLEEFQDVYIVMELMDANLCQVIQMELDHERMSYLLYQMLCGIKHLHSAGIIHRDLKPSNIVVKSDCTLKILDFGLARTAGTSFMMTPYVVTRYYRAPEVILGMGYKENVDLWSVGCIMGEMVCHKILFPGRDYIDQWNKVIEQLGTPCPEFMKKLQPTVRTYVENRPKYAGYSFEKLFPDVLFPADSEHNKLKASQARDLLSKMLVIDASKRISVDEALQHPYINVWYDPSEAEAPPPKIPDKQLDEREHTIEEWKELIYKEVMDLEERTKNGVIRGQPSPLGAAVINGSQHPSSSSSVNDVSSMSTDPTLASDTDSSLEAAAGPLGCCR

[4] = Selectivity ratio of IC50 for inhibition of JNK1 (unknown origin) to IC50 for inhibition of JNK3 (unknown origin)
[5] = target: Glycogen synthase kinase-3 beta (Homo sapiens, UniProt P49841); test: Inhibition of GSK3beta (unknown origin) incubated for 20 mins in presence of 33P-ATP
Chain of Glycogen synthase kinase-3 beta (P49841 whole entry): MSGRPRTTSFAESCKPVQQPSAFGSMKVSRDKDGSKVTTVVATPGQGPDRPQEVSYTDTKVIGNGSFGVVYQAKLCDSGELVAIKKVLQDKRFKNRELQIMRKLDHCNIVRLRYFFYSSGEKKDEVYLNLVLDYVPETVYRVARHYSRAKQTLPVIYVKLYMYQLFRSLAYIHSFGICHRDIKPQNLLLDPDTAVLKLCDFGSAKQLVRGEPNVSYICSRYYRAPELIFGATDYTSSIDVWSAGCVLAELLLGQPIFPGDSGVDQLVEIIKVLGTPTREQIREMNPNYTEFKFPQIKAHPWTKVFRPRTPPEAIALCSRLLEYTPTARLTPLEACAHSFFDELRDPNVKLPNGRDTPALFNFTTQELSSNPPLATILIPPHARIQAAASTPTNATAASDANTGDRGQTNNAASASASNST

[6] = target: T4, Mitogen-activated protein kinase 14 (Homo sapiens, UniProt Q16539); test: Inhibition of p38alpha (unknown origin) incubated for 20 mins in presence of 33P-ATP
T4 sequence (Q16539 whole entry): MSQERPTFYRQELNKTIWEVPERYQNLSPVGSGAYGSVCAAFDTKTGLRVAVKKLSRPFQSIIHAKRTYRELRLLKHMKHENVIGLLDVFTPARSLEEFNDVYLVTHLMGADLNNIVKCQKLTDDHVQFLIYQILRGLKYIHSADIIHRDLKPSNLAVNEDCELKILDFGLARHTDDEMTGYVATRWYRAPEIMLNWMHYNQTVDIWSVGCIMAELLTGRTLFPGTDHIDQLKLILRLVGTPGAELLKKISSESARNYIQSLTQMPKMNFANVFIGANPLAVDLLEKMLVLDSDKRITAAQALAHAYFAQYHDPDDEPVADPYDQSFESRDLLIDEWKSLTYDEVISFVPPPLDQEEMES

[7] = test system: Cortical neurone; test: cells; conditions: Rattus norvegicus, 120 h, read-out: Activity
[8] = target: Mitogen-activated protein kinase 10 (Rattus norvegicus) (UniProt P49187); test: Inhibition of JNK3 in primary rat cortex neuron cells assessed as reduction in Abeta1-42 induced c-Jun phosphorylation by Western blotting analysis; type: cell-based; conditions: Primary cortical neuron
Chain of Mitogen-activated protein kinase 10 (Rattus norvegicus) (P49187 whole entry): as the sequence (P53779 whole entry) above, with Q27H, Y32S, I33V, A34V counted along it

[9] = target: T2, Mitogen-activated protein kinase 9; test: Inhibition of JNK2 (unknown origin) at 1 uM relative to control
Target sequence in this assay (P45984 whole entry, looked up): as the sequence (P45984 whole entry) above

[10] = target: Mitogen-activated protein kinase 10 (Rattus norvegicus) (UniProt P49187); test: Inhibition of JNK3 in primary rat cortex neuron cells assessed as reduction in Abeta1-42 induced APP phosphorylation by Western blotting analysis; type: cell-based; conditions: Primary cortical neuron
[11] = target: T3, Mitogen-activated protein kinase 8; test: Inhibition of JNK1 (unknown origin) at 1 uM relative to control
[12] = target: T1, Mitogen-activated protein kinase 10; test: Inhibition of JNK3 (unknown origin) at 1 uM relative to control
[13] = target: T4, Mitogen-activated protein kinase 14; test: Inhibition of p38alpha (unknown origin) at 1 uM relative to control
[14] = Selectivity ratio of IC50 for inhibition of GSK3beta (unknown origin) to IC50 for inhibition of JNK3 (unknown origin)
[15] = Selectivity ratio of IC50 for inhibition of p38alpha (unknown origin) to IC50 for inhibition of JNK3 (unknown origin)

`CCOC(=O)C1Cc2nc(-c3ccc4c(c3)OCO4)n(-c3ccnc(N[C@H]4CCCN(C(=O)C5CC5)C4)n3)c2C1` (stereo partly specified) showed an IC50 [1] of 0.0105 µM.

`CCOC(=O)C1Cc2nc(-c3ccc4c(c3)CCO4)n(-c3ccnc(N[C@@H]4CCCN(C(=O)C5CC5)C4)n3)c2C1` (stereo partly specified) gave an IC50 [1] of 0.0104 µM.

`NC(=O)C1Cc2nc(-c3ccc(F)c(C(F)(F)F)c3)n(-c3ccnc(N[C@H]4CCCN(C(=O)C5CC5)C4)n3)c2C1` (stereo partly specified) showed an IC50 [1] of 0.00639 µM.

With `CNC(=O)C1Cc2nc(-c3ccc4ccccc4c3)n(-c3ccnc(N[C@@H]4CCCN(C(=O)C5CC5)C4)n3)c2C1` (stereo partly specified) the IC50 [2] was 0.0163 µM, the IC50 [3] was 0.0755 µM and the Ratio IC50 [4] was 50. It also gave an IC50 [1] of 0.00108 µM, an IC50 [5] of 1.66 µM and an IC50 [6] of 0.0375 µM.

For `NC(=O)C1Cc2nc(-c3ccc(Cl)c(Cl)c3)n(-c3ccnc(N[C@H]4CCN(C(=O)C5CC5)C4)n3)c2C1` (stereo partly specified), the IC50 [1] was 0.0154 µM.

In the case of `CCOC(=O)C1Cc2nc(-c3ccc(Cl)c(Cl)c3)n(-c3ccnc(N[C@H]4CCN(C(=O)C5CC5)C4)n3)c2C1` (stereo partly specified), the IC50 [1] is reported as 0.0282 µM.

Compound `NC(=O)C1Cc2nc(-c3ccc(F)c(C(F)(F)F)c3)n(-c3ccnc(N[C@H]4CCN(C(=O)C5CC5)C4)n3)c2C1` (stereo partly specified) has an IC50 [1] of 0.183 µM.

`CCOC(=O)C1Cc2nc(-c3ccc4ccccc4c3)n(-c3ccnc(N[C@@H]4CCCN(C(=O)C5CC5)C4)n3)c2C1` (stereo partly specified) gave an IC50 [2] of 0.0119 µM, an IC50 [3] of 0.0561 µM and an IC50 [1] of 0.000779 µM. It also gave an IC50 [5] of 1.25 µM and an IC50 [6] of 0.0847 µM.

For `NC(=O)C1Cc2nc(-c3ccc(Cl)c(Cl)c3)n(-c3ccnc(N[C@H]4CCCN(C(=O)C5CC5)C4)n3)c2C1` (stereo partly specified), the viability at 10 µM [7] was 62.9%, the IC50 [2] was 0.0294 µM and the inhibition [8] was “Active”. The inhibition [9] was 80%, the IC50 [3] was 0.0827 µM and the inhibition [10] was “Active”. For the same compound, the inhibition [11] was 80%, the IC50 [1] was 0.000379 µM and the IC50 [5] was 3.89 µM. The IC50 [6] was 0.216 µM, the inhibition [12] was 100% and the inhibition [13] was 80%.

`CNC(=O)C1Cc2nc(-c3ccc(Cl)c(Cl)c3)n(-c3ccnc(N[C@H]4CCN(C(=O)C5CC5)C4)n3)c2C1` (stereo partly specified) gave an IC50 [1] of 0.0102 µM.

With `CNC(=O)C1Cc2nc(-c3ccc(F)c(C(F)(F)F)c3)n(-c3ccnc(N[C@H]4CCCN(C(=O)C5CC5)C4)n3)c2C1` (stereo partly specified) the IC50 [1] was 0.0306 µM.

For `CCOC(=O)C1Cc2nc(-c3ccc4c(c3)CCO4)n(-c3ccnc(N[C@H]4CCCN(C(=O)C5CC5)C4)n3)c2C1` (stereo partly specified), the IC50 [1] was 0.0314 µM.

`NC(=O)C1Cc2nc(-c3ccc(Cl)c(Cl)c3)n(-c3ccnc(N[C@@H]4CCCN(C(=O)C5CC5)C4)n3)c2C1` (stereo partly specified) gave an IC50 [2] of 0.0166 µM, an inhibition [9] of 80% and an IC50 [3] of 0.16 µM. It also gave an inhibition [11] of 80%, an IC50 [1] of 0.00073 µM and an IC50 [5] of 0.47 µM. For the same compound, the IC50 [6] was 0.0706 µM, the inhibition [12] was 100% and the inhibition [13] was 80%.

In the case of `NC(=O)C1Cc2nc(-c3ccc4ccccc4c3)n(-c3ccnc(N[C@H]4CCCN(C(=O)C5CC5)C4)n3)c2C1` (stereo partly specified), the viability at 10 µM [7] is reported as 58.5%, the inhibition [8] is reported as “Active” and the inhibition [10] is reported as “Active”. For the same compound, the IC50 [1] was 0.00176 µM.

Compound `NC(=O)C1Cc2nc(-c3ccc4c(c3)OCO4)n(-c3ccnc(N[C@@H]4CCCN(C(=O)C5CC5)C4)n3)c2C1` (stereo partly specified) has an IC50 [1] of 0.0361 µM.

`CCOC(=O)C1Cc2nc(-c3ccc4c(c3)CCO4)n(-c3ccnc(N[C@H]4CCN(C(=O)C5CC5)C4)n3)c2C1` (stereo partly specified) gave an IC50 [1] of 0.158 µM.

`NC(=O)C1Cc2nc(-c3ccc4ccccc4c3)n(-c3ccnc(N[C@@H]4CCCN(C(=O)C5CC5)C4)n3)c2C1` (stereo partly specified) gave an IC50 [1] of 0.00172 µM.

Compound `NC(=O)C1Cc2nc(-c3ccc4c(c3)OCO4)n(-c3ccnc(N[C@H]4CCCN(C(=O)C5CC5)C4)n3)c2C1` (stereo partly specified) has a viability at 10 µM [7] of 55.1% and an IC50 [1] of 0.01 µM.

`CNC(=O)C1Cc2nc(-c3ccc(F)c(C(F)(F)F)c3)n(-c3ccnc(N[C@H]4CCN(C(=O)C5CC5)C4)n3)c2C1` (stereo partly specified) showed an IC50 [1] of 0.601 µM.

For `CCOC(=O)C1Cc2nc(-c3ccc4ccccc4c3)n(-c3ccnc(N[C@H]4CCCN(C(=O)C5CC5)C4)n3)c2C1` (stereo partly specified), the viability at 10 µM [7] was 55.7%, the IC50 [2] was 0.013 µM and the inhibition [8] was “Active”. The IC50 [3] was 0.0325 µM, the inhibition [10] was “Active” and the IC50 [1] was 0.000716 µM. It also gave an IC50 [5] of 2.25 µM and an IC50 [6] of 0.291 µM.

For `NC(=O)C1Cc2nc(-c3ccc4c(c3)OCO4)n(-c3ccnc(N[C@H]4CCN(C(=O)C5CC5)C4)n3)c2C1` (stereo partly specified), the IC50 [1] was 0.135 µM.

For `CCOC(=O)C1Cc2nc(-c3ccc(Cl)c(Cl)c3)n(-c3ccnc(N[C@@H]4CCN(C(=O)C5CC5)C4)n3)c2C1` (stereo partly specified), the IC50 [1] was 0.00433 µM.

`CCOC(=O)C1Cc2nc(-c3ccc4ccccc4c3)n(-c3ccnc(N[C@@H]4CCN(C(=O)C5CC5)C4)n3)c2C1` (stereo partly specified) showed an IC50 [1] of 0.00682 µM.

`CCOC(=O)C1Cc2nc(-c3ccc4c(c3)OCO4)n(-c3ccnc(N[C@@H]4CCN(C(=O)C5CC5)C4)n3)c2C1` (stereo partly specified) gave an IC50 [1] of 0.0499 µM.

Work on `CNC(=O)C1Cc2nc(-c3ccc(F)c(C(F)(F)F)c3)n(-c3ccnc(N[C@@H]4CCCN(C(=O)C5CC5)C4)n3)c2C1` (stereo partly specified) yielded an IC50 [1] of 0.7 µM.

In the case of `CNC(=O)C1Cc2nc(-c3ccc4ccccc4c3)n(-c3ccnc(N[C@H]4CCCN(C(=O)C5CC5)C4)n3)c2C1` (stereo partly specified), the IC50 [2] is reported as 0.00756 µM, the Ratio IC50 [14] is reported as over 100 and the inhibition [9] is reported as 80%. The IC50 [3] was 0.0144 µM, the Ratio IC50 [4] was over 100 and the inhibition [11] was 80%. The IC50 [1] was 0.000564 µM, the Ratio IC50 [15] was over 100 and the IC50 [5] was 1.8 µM. The IC50 [6] was 0.751 µM, the inhibition [12] was 100% and the inhibition [13] was 80%.
